Data as given in US5861475A, “Compositions and methods for the inhibition of phagocytes” (Research Corporation Technologies, Inc., priority 1996, dated 1999).
pIC50: −log10 of the molar value. Where no end group is shown, it is not given here.

Legend:
[1] = tested on: PMN; experiment: PMN cytosolic calcium concentration (Indo-loaded PMN); type: cell-based, human
[2] = tested on: polymorphonuclear neutrophils (PMN); type: cell-based; settings: 10 nM human recombinant C5a; cells concomitantly exposed to peptide and agonist; read-out: IC50 for C5a-induced chemotaxis
Procedure: Whole blood was obtained from a normal human volunteer population and PMN were isolated by ficoll-hypaque gradient centrifugation followed dextran sedimentation, as described by Cooper et al., (1991).
The degree of inhibition of PMN chemotaxis by natural purified inhibitor or synthetic peptides was determined as described by Cooper et al. (1991) using 100 nM formyl-methionyl-leucyl-phenylalanine (fMLP), 10 nM human recombinant C5a or 10 nM leukotriene B4 and multiwell chemotaxis chambers (Neuroprobe Inc., Bethesda, Md.) employing nitrocellulose membranes. Isoelectric focused fractions or HPLC elution fractions were diluted 1:1000 in a final concentration of the above agonists. Controls included buffer alone or C5a diluted in buffer alone.
22 μl of samples were placed in bottom wells of the chemotaxis chamber, a nitrocellulose membrane with 3 μm pores was overlaid as was a rubber gasket. […] Chemotaxis was assessed by comparing the maximal distance migrated to agonist alone or in the presence of an irrelevant peptide (μm minus migration to buffer alone) and comparing to the distance migrated to agonist plus elution fractions or synthetic peptides. The percentage of total cells migrating 10 μm increments from 0 to 120 μm was also determined by image analysis (Olympus Instruments) and treatment groups were compared to controls. […]

[3] = tested on: PMN; experiment: PMN viability by LDH release
Procedure: PMN viability after exposure to NIP (seq id no:1) or control peptide for varying amounts of time was assessed by measuring LDH release using a commercially available kit (Sigma).

## COc1cc(N(CC(=O)OCOC(C)=O)CC(=O)OCOC(C)=O)c2nc(COc3cc(C)ccc3N(CC(=O)OCOC(C)=O)CC(=O)OCOC(C)=O)ccc2c1 [Quin 2 AM]
[1]; 10 μM, after 1 μM fMLP stimulation
  buffering of rises in cytosolic calcium concentrations: significantly buffered

## EGSYFFGDNA [NIP-Arg, Glu-Gly-Ser-Tyr-Phe-Phe-Gly-Asp-Asn-Ala]
[2]
  pIC50: 5.22

## REGSYFFGDNA [NIP, Arg-Glu-Gly-Ser-Tyr-Phe-Phe-Gly-Asp-Asn-Ala]
[3]; 5 μM, 5 min exposure
  [LDH] of supernatant: 37.2 ± 6.3
[3]; 5 μM, 15 min exposure
  [LDH] of supernatant: 40.8 ± 3.7
[3]; 5 μM, 30 min exposure
  [LDH] of supernatant: 30.2 ± 4.25
[3]; 5 μM, 60 min exposure
  [LDH] of supernatant: 35 ± 5.5
[3]; concentrations that inhibited chemotaxis and oxidant production
  cellular viability as determined by LDH release: did not significantly alter
[2]
  pIC50: 5.70

## SNRGFAYFDEG [Control peptide, Ser-Asn-Arg-Gly-Phe-Ala-Tyr-Phe-Asp-Glu-Gly, reference compound]
[3]; 5 μM, 60 min exposure
  [LDH] of supernatant: 39.2 ± 6.5

## Triton [reference compound]
[3]; 0.1%, 5 min exposure
  [LDH] of supernatant: 252 ± 6.5

## pertussis toxin
[1]; pertussis toxin pretreatment
  ionomycin-induced rise in cytosolic calcium: no effect
  rise in cytosolic calcium concentration induced by 1 μM FMLP: Attenuation
